Measurements: patent publication US20230203098A1, “HUMAN TRANSFERRIN RECEPTOR BINDING PEPTIDE” (priority 2020, published 2023)
Read-outs that look alike come from different tables or passages of the source. Each block holds one compound with its values, some of them ahead of it. Where a SMILES comes first, the peptide text is derived from it. Bridges are numbered along the chain shown (N, C = ends). [ ]: non-standard residue; d: D form. The star is where a group is joined. ξ: configuration not given here. X2 = O=C(O)c1cc(C(=O)*)ccc1-c1c2ccc(=O)cc-2oc2cc(O)ccc12; PEG12 = NCCOCCOCCOCCOCCOCCOCCOCCOCCOCCOCCOCCOCCC(=O)O; NMePhe(3-Cl) = CN[C@@H](Cc1cccc(Cl)c1)C(=O)O; NMeW = CN[C@@H](Cc1c[nH]c2ccccc12)C(=O)O; NMeY = CN[C@@H](Cc1ccc(O)cc1)C(=O)O; PEG4 = NCCOCCOCCOCCOCCC(=O)O; dOrn = NCCC[C@@H](N)C(=O)O; ξαMeK = CC(N)(CCCCN)C(=O)O; Dab = NCC[C@H](N)C(=O)O

Biological target: transferrin receptor (hTfR) (Homo sapiens, UniProt P02786)
Sequence (P02786 whole entry): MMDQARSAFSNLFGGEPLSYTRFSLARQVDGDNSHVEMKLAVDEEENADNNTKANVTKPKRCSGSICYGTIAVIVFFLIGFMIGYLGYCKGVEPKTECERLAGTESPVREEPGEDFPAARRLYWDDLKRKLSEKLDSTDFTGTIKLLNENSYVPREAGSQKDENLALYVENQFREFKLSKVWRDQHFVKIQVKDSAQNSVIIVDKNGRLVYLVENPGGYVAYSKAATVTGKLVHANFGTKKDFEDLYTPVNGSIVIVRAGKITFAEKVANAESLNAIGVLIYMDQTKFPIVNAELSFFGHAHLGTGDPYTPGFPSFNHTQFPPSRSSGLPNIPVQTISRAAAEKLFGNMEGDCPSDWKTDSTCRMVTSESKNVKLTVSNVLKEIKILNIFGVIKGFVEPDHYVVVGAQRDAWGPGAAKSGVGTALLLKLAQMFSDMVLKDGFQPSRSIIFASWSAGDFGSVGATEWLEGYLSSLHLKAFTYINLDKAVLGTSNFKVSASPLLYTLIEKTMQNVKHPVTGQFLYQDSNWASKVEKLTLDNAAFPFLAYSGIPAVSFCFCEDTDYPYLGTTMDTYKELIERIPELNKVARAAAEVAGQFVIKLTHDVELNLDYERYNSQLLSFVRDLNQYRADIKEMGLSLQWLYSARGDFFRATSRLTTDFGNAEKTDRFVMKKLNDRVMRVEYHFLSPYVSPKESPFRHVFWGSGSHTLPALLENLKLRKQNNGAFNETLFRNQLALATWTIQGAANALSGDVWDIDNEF
Experiment: Intermolecular interaction evaluation test between transferrin receptor (hTfR) and peptide by surface plasmon resonance (SPR)
Format: binding
In short: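 Receptor was Ni-captured and EDC/NHS-fixed on an NTA chip; running buffer HEPES pH 8.0 with NaCl, Tween 20, BSA and 1.0% DMSO.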

[1] = binding to hTfR by SPR, Table 2 peptides, read-out: KD value (SPR) class
[2] = surface plasmon resonance, hTfR, read-out: KD value for hTfR by SPR (class symbol)
[3] = surface plasmon resonance, peptide vs hTfR, read-out: KD value, hTfR binding by SPR (class symbol)
[4] = SPR, peptides, linker-added peptides and FITC conjugates, Patent ID 203-230, read-out: KD

SMILES: CC[C@H](C)[C@@H]1NC(=O)[C@H](Cc2ccc(O)cc2)NC(=O)[C@H](Cc2ccc(O)cc2)NC(=O)[C@H](CC(N)=O)NC(=O)[C@H](Cc2c[nH]c3ccccc23)NC(=O)[C@H](C(C)C)NC(=O)[C@H](Cc2ccccc2)NC(=O)[C@H](C(C)C)NC(=O)[C@H](C)NC(=O)CSC[C@@H](C(N)=O)NC(=O)[C@H](Cc2ccc(O)cc2)N(C)C(=O)[C@H](Cc2ccc(O)cc2)NC(=O)[C@H](CCC(=O)O)NC(=O)[C@H](CCCNC(=N)N)NC(=O)[C@H]([C@@H](C)CC)NC1=O [compound 257]
Kd [1]: 1 to 100 nM

SMILES: CC[C@H](C)[C@@H]1NC(=O)[C@H](Cc2ccc(OC)cc2)NC(=O)[C@H](Cc2ccc(O)cc2)NC(=O)[C@H](CC(N)=O)NC(=O)[C@H](Cc2c[nH]c3ccccc23)N(C)C(=O)[C@H](C(C)C)NC(=O)[C@H](Cc2cccc(Cl)c2)N(C)C(=O)[C@H](C(C)C)NC(=O)[C@H](C)NC(=O)CSC[C@@H](C(=O)NCCOCCOCCOCCOCCC(N)=O)NC(=O)[C@H](Cc2ccc(O)cc2)N(C)C(=O)[C@H](Cc2ccccc2)NC(=O)[C@@H](CCCNC(=N)N)NC(=O)[C@H](CCCNC(=N)N)NC(=O)[C@H](CCN)NC1=O [compound 337] ({CH2CO}-AV[NMePhe(3-Cl)]V[NMeW]NYY(Me)I[Dab]R[dR]F[NMeY]C[PEG4]-NH2; thioether N-15)
Kd [3]: 1 to 100 nM

SMILES: CC[C@H](C)[C@@H]1NC(=O)[C@H](Cc2ccc(O)cc2)NC(=O)[C@H](Cc2ccc(O)cc2)NC(=O)[C@H](CC(N)=O)NC(=O)[C@H](Cc2c[nH]c3ccccc23)NC(=O)[C@H](C(C)C)NC(=O)[C@H](Cc2ccccc2)NC(=O)[C@H](C(C)C)NC(=O)[C@H](C)NC(=O)CSC[C@@H](C(=O)NCCOCCOCCOCCOCCOCCOCCOCCOCCOCCOCCOCCOCCC(=O)N[C@@H](CCCCNC(=O)c2ccc(-c3c4ccc(=O)cc-4oc4cc(O)ccc34)c(C(=O)O)c2)C(N)=O)NC(=O)[C@H](Cc2c[nH]c3ccccc23)N(C)C(=O)[C@H](CCCNC(=N)N)NC(=O)[C@@H]2CCCN2C(=O)[C@H](C(C)C)NC1=O [compound 210] ({CH2CO}-AVFVWNYYIVPR[NMeW]C[PEG12]K(X2)-NH2; thioether N-14)
Kd [4]: 1 to 100 nM

SMILES: CC[C@H](C)[C@@H]1NC(=O)[C@H](Cc2ccc(O)cc2)NC(=O)[C@H](Cc2ccc(O)cc2)NC(=O)[C@H](CC(N)=O)NC(=O)[C@H](Cc2c[nH]c3ccccc23)NC(=O)[C@H](C(C)C)NC(=O)[C@H](Cc2ccccc2)NC(=O)[C@H](C(C)C)NC(=O)[C@H](C)NC(=O)CSC[C@@H](C(=O)NCCOCCOCCOCCOCCOCCOCCOCCOCCOCCOCCOCCOCCC(=O)N[C@@H](CCCCNC(=O)c2ccc(-c3c4ccc(=O)cc-4oc4cc(O)ccc34)c(C(=O)O)c2)C(N)=O)NC(=O)[C@H](CC(N)=O)NC(=O)[C@H](CCCNC(=N)N)NC(=O)[C@@H]2CCCN2C(=O)[C@H](C(C)C)NC1=O [compound 212] ({CH2CO}-AVFVWNYYIVPRNC[PEG12]K(X2)-NH2; thioether N-14)
Kd [4]: 1 to 100 nM

SMILES: CC[C@H](C)[C@@H]1NC(=O)[C@H](Cc2ccc(O)cc2)NC(=O)[C@H](Cc2ccc(O)cc2)NC(=O)[C@H](CC(N)=O)NC(=O)[C@H](Cc2c[nH]c3ccccc23)NC(=O)[C@H](C(C)C)NC(=O)[C@H](Cc2ccccc2)NC(=O)[C@H](C(C)C)NC(=O)[C@H](C)NC(=O)CSC[C@@H](C(N)=O)NC(=O)[C@H](Cc2ccc(O)cc2)N(C)C(=O)[C@H](Cc2ccc(O)cc2)NC(=O)[C@H](CCCNC(=N)N)NC(=O)[C@H](CCCCN)NC(=O)[C@H]([C@@H](C)CC)NC1=O [compound 255]
Kd [1]: < 1 nM

SMILES: CC[C@H](C)[C@@H]1NC(=O)[C@H](Cc2ccc(OC)cc2)NC(=O)[C@H](Cc2ccc(O)cc2)NC(=O)[C@H](CC(N)=O)NC(=O)[C@H](Cc2c[nH]c3ccccc23)N(C)C(=O)[C@H](C(C)C)NC(=O)[C@H](Cc2cccc(Cl)c2)N(C)C(=O)[C@H](C(C)C)NC(=O)[C@H](C)NC(=O)CSC[C@@H](C(=O)N[C@H](CCC(=O)O)C(N)=O)NC(=O)[C@H](Cc2ccc(O)cc2)N(C)C(=O)[C@H](Cc2ccccc2)NC(=O)[C@@H](CCCNC(=N)N)NC(=O)C(C)(C)NC(=O)[C@H]([C@@H](C)CC)NC1=O [compound 355]
Kd [2]: 100 to 1000 nM

Next, values leading:

Kd [2]: 1 to 100 nM
SMILES: CC[C@H](C)[C@@H]1NC(=O)[C@H](Cc2ccc(OC)cc2)NC(=O)[C@H](Cc2ccc(O)cc2)NC(=O)[C@H](CC(N)=O)NC(=O)[C@H](Cc2c[nH]c3ccccc23)N(C)C(=O)[C@H](C(C)C)NC(=O)[C@H](Cc2cccc(Cl)c2)N(C)C(=O)[C@H](C(C)C)NC(=O)[C@H](C)NC(=O)CSC[C@@H](C(=O)NCCOCCOCCOCCOCCC(N)=O)NC(=O)[C@H](Cc2ccc(O)cc2)N(C)C(=O)[C@H](Cc2ccccc2)NC(=O)[C@@H](CCCNC(=N)N)NC(=O)C(C)(CCCCN)NC(=O)[C@H]([C@@H](C)CC)NC1=O (stereo partly drawn) [compound 380] ({CH2CO}-AV[NMePhe(3-Cl)]V[NMeW]NYY(Me)II[ξαMeK][dR]F[NMeY]C[PEG4]-NH2; thioether N-15)

Kd (SPR, hTfR, class symbols A-D, read-out: KD (column without head, continuation of the table series)): 100 to 1000 nM
SMILES: CC[C@H](C)[C@@H]1NC(=O)[C@H](Cc2ccc(OCCN)cc2)NC(=O)[C@H](Cc2ccc(O)cc2)NC(=O)[C@H](CC(N)=O)NC(=O)[C@H](Cc2c[nH]c3ccccc23)NC(=O)[C@H](C(C)C)NC(=O)[C@H](Cc2ccccc2)N(C)C(=O)[C@H](C(C)C)NC(=O)[C@H](C)NC(=O)CSC[C@@H](C(N)=O)NC(=O)[C@H](Cc2ccc(O)cc2)N(C)C(=O)[C@H](Cc2ccccc2)NC(=O)[C@@H](CCCNC(=N)N)NC(=O)[C@H](CCCNC(=N)N)NC(=O)[C@H]([C@@H](C)CC)NC1=O [compound 523]

Kd [4]: 1 to 100 nM
SMILES: CC[C@H](C)[C@@H]1NC(=O)[C@H](Cc2ccc(OC)cc2)NC(=O)[C@H](Cc2ccc(O)cc2)NC(=O)[C@H](CC(N)=O)NC(=O)[C@H](Cc2c[nH]c3ccccc23)N(C)C(=O)[C@H](C(C)C)NC(=O)[C@H](Cc2cccc(Cl)c2)N(C)C(=O)[C@H](CCC(=O)O)NC(=O)[C@H](C)NC(=O)CSC[C@@H](C(N)=O)NC(=O)[C@H](CC(N)=O)NC(=O)[C@H](CCCNC(=N)N)NC(=O)[C@@H]2CCCN2C(=O)[C@H](C(C)C)NC1=O [compound 207] ({CH2CO}-AE[NMePhe(3-Cl)]V[NMeW]NYY(Me)IVPRNC-NH2; thioether N-14)

Kd [3]: 1 to 100 nM
SMILES: CC[C@H](C)[C@@H]1NC(=O)[C@H](Cc2ccc(O)cc2)NC(=O)[C@H](Cc2ccc(O)cc2)NC(=O)[C@H](CC(N)=O)NC(=O)[C@H](Cc2c[nH]c3ccccc23)NC(=O)[C@H](C(C)C)NC(=O)[C@H](Cc2ccccc2)N(C)C(=O)[C@H](C(C)C)NC(=O)[C@H](C)NC(=O)CSC[C@@H](C(N)=O)NC(=O)[C@H](Cc2ccc(O)cc2)N(C)C(=O)[C@H](Cc2ccc(O)cc2)NC(=O)[C@H](CCCNC(=N)N)NC(=O)[C@H](CCCCN)N(C)C(=O)[C@H]([C@@H](C)CC)NC1=O [compound 292]

Kd [2]: 100 to 1000 nM
SMILES: CC[C@H](C)[C@@H]1NC(=O)[C@H](Cc2ccc(OC)cc2)NC(=O)[C@H](Cc2ccc(O)cc2)NC(=O)[C@H](CC(N)=O)NC(=O)[C@H](Cc2c[nH]c3ccccc23)N(C)C(=O)[C@H](C(C)C)NC(=O)[C@H](Cc2cccc(Cl)c2)N(C)C(=O)[C@H](C(C)C)NC(=O)[C@H](C)NC(=O)CSC[C@@H](C(N)=O)NC(=O)[C@H](Cc2ccc(O)cc2)N(C)C(=O)[C@H](Cc2ccccc2)NC(=O)[C@@H](C)NC(=O)[C@H](CCCNC(=N)N)N(C)C(=O)[C@H]([C@@H](C)CC)NC1=O [compound 383]

Kd [3]: 1 to 100 nM
SMILES: CC[C@H](C)[C@@H]1NC(=O)[C@H](Cc2ccc(OC)cc2)NC(=O)[C@H](Cc2ccc(O)cc2)NC(=O)[C@H](CC(N)=O)NC(=O)[C@H](Cc2c[nH]c3ccccc23)N(C)C(=O)[C@H](C(C)C)NC(=O)[C@H](Cc2cccc(Cl)c2)N(C)C(=O)[C@H](C(C)C)NC(=O)[C@H](C)NC(=O)CSC[C@@H](C(=O)NCCOCCOCCOCCOCCC(N)=O)NC(=O)[C@H](Cc2ccc(O)cc2)N(C)C(=O)[C@H](Cc2ccccc2)NC(=O)[C@@H](CCCNC(=N)N)NC(=O)[C@H](CCCNC(=N)N)NC(=O)[C@@H](CCCN)NC1=O [compound 338] ({CH2CO}-AV[NMePhe(3-Cl)]V[NMeW]NYY(Me)I[dOrn]R[dR]F[NMeY]C[PEG4]-NH2; thioether N-15)

Kd (hTfR binding by SPR, hTfR No. 894 variant peptides, linker-added peptides and payload conjugates (Table 2), read-out: KD value obtained from the SPR measurement): 1 to 100 nM
SMILES: CC[C@H](C)[C@@H]1NC(=O)[C@H](Cc2ccc(O)cc2)NC(=O)[C@H](Cc2ccc(O)cc2)NC(=O)[C@H](CC(N)=O)NC(=O)[C@H](Cc2c[nH]c3ccccc23)NC(=O)[C@H](C(C)C)NC(=O)[C@H](Cc2ccccc2)N(C)C(=O)[C@H](C(C)C)NC(=O)[C@H](C)NC(=O)CSC[C@@H](C(=O)NCC(=O)NCC(=O)NCC(=O)N[C@@H](CO)C(=O)N[C@@H](CO)C(=O)N[C@@H](CCCCNC(=O)C2CCC(CN3C(=O)C=CC3=O)CC2)C(N)=O)NC(=O)[C@H](Cc2ccc(O)cc2)N(C)C(=O)[C@H](Cc2ccc(O)cc2)NC(=O)[C@H](CCCNC(=N)N)NC(=O)[C@H](CCCNC(=N)N)NC(=O)[C@H]([C@@H](C)CC)NC1=O (stereo partly drawn) [compound 187]

Kd [2]: 1 to 100 nM
SMILES: CC[C@H](C)[C@@H]1NC(=O)[C@H](Cc2ccc(OC)cc2)NC(=O)[C@H](Cc2ccc(O)cc2)NC(=O)[C@H](CC(N)=O)NC(=O)[C@H](Cc2c[nH]c3ccccc23)N(C)C(=O)[C@H](C(C)C)NC(=O)[C@H](Cc2cccc(Cl)c2)N(C)C(=O)[C@H](C(C)C)NC(=O)[C@H](C)NC(=O)CSC[C@@H](C(=O)N[C@H](CCC(=O)O)C(=O)N[C@H](CCC(=O)O)C(N)=O)NC(=O)[C@H](Cc2ccc(O)cc2)N(C)C(=O)[C@H](Cc2ccccc2)NC(=O)[C@@H](CCCNC(=N)N)NC(=O)C(C)(C)NC(=O)[C@H]([C@@H](C)CC)NC1=O [compound 356]

Kd [1]: 1 to 100 nM
SMILES: CC[C@H](C)[C@@H]1NC(=O)[C@H](Cc2ccc(O)cc2)NC(=O)[C@H](Cc2ccc(O)cc2)NC(=O)[C@H](CC(N)=O)NC(=O)[C@H](Cc2c[nH]c3ccccc23)NC(=O)[C@H](C(C)C)NC(=O)[C@H](Cc2ccccc2)NC(=O)[C@H](C(C)C)NC(=O)[C@H](C)NC(=O)CSC[C@@H](C(N)=O)NC(=O)[C@H](Cc2ccc(O)cc2)N(C)C(=O)[C@H](Cc2ccc(O)cc2)NC(=O)[C@H](CCCNC(=N)N)NC(=O)[C@H](CCC(=O)O)NC(=O)[C@H]([C@@H](C)CC)NC1=O [compound 251]
